The source of these data is PubChem BioAssay (NCI).

Common to all, as to assay: NCI anticancer screen, dose series, 48 h
Assay [1] deals with KM20L2 colon.
For assay [2], the system named is UACC-62 melanoma.
In assay [3] the test system is SK-OV-3 ovarian.
The subject of assay [4] is RXF 393 renal.
The subject of assay [5] is A498 renal.
In assay [6] the test system is LXFL 529 NSCLC.
The test system of assay [7] is HT29 colon.
Assay [8] deals with DMS 114 small cell lung.
The test system of assay [9] is SNB-78 CNS.
Assay [10] has as its system DLD-1 colon.
Assay [11] has as its system M19-MEL melanoma.
Assay [12] deals with HCT-15 colon.
In assay [13] the test system is DMS 273 small cell lung.

Several values for one entry are separate records, joined by “and”; a condition that tells them apart may be missing. Equal entries are not always repeated.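 Dose response: 5 concentrations. Exposure: 48 h. Format: 96-well plates. Endpoint: linear interpolation; highest concentration if not reached. At the GI50, growth is halved. TGI is the concentration that stops growth completely.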 Bounds are passed on as bounds.

As to `O=C(O)/C(=C/C=C/c1ccccc1)c1csc(-c2nc(/C(=C\C=C\c3ccccc3)C(=O)O)cs2)n1`, the TGI is over 100 µM in assay [1]; 98.1 µM in assay [2]; over 100 µM in [3]; 82.4 µM in [4]; over 100 µM in assay [5]; 64.8 µM in assay [6]. Further, the TGI was over 100 µM in assay [7]; 72 µM in assay [8]; 79.8 µM in [9]; 57.7 µM in [10]; over 100 µM in assay [11]; over 100 µM in assay [12].

`CCCCCCCCCCCC1CCCC(C)N1` (stereo not given): the TGI in assay [1] was 85.9 µM; in assay [2], 23.6 µM and 102 µM; in [3] it was 28.5 µM and 158 µM; in [4] it was 35.6 µM and 108 µM; in [5], 31.9 µM and 154 µM; in assay [7], 8.78 µM and 65.7 µM. Besides, the TGI in assay [8] was 139 µM; in [9], 174 µM; in [13], 136 µM; in assay [10], 83.4 µM; in [11], 130 µM; in assay [12], 13.3 µM and 104 µM. For the same compound, the GI50 in assay [2] is 8.12 µM; in assay [3] it was 14.5 µM; in [4] it was 15.2 µM; in [5], 16.2 µM; in [7] it was 2.59 µM; in [12], 2.85 µM.

For `S=c1cc(S)sc2c1c(=S)sc1nc3ccccn3c(=S)c12`, the TGI in [1] was over 100 µM; in assay [2] it was over 100 µM; in assay [4], over 100 µM; in assay [5], over 100 µM; in [7], over 100 µM; in assay [8], 40.1 µM. Further, the TGI in [9], in assay [13], in assay [10], in assay [11] and in [12] was over 100 µM each time.

With `O=C(Cn1ccnc1[N+](=O)[O-])c1ccc(F)cc1`, the TGI in assay [1], in [2], in assay [3], in assay [4], in assay [5] and in [6] was over 100 µM in each case. Also, the TGI in assay [7], in assay [8], in assay [13], in assay [11] and in [12] was over 100 µM in each case.

In the case of `C1=CC=C2NCCCNC3=CC=CC=CC3=NCCCN=C2C=C1`, the TGI in [1], in [2], in assay [3], in assay [5], in assay [6] and in [7] was over 100 µM each time. The TGI in assay [8], in assay [9], in assay [13], in assay [10], in [11] and in assay [12] was over 100 µM throughout.

Regarding `CCc1cccc(C(C)C)c1NC(=O)C(=O)C(CC(=O)Nc1ccc(Cl)c(Cl)c1)C(=O)OC` (stereo not given), the TGI is over 100 µM in assay [1]; 6.77 µM in assay [2]; over 100 µM in [3]; over 100 µM in assay [4]; over 100 µM in assay [5]; over 100 µM in assay [7]. The TGI in [8] was over 100 µM; in assay [9] it was over 100 µM; in [13] it was over 100 µM; in assay [10], over 100 µM; in assay [11], over 100 µM; in [12], 32.8 µM.

In the case of `Cc1cc(C)nc(NS(=O)(=O)c2ccc(Nc3c4ccc(Cl)cc4nc4c(C(=O)Nc5ccc(S(N)(=O)=O)cc5)cccc34)cc2)n1`, the TGI in assay [1] was 33.1 µM; in assay [2] it was 76.6 µM; in assay [3], 30.5 µM; in assay [4], 26.7 µM; in assay [5], 32.6 µM; in assay [6] it was over 100 µM. For the same compound, the TGI in assay [7] was 52.4 µM; in [8], 65 µM; in assay [9] it was over 100 µM; in [10], 32 µM; in [11], over 100 µM; in [12], 36.2 µM.

As for `CN(C)CCNC(=O)c1cccc2c1nc(-c1ccccc1)c1ccccc12`, the TGI in assay [2] is 24.4 µM; in assay [3] it was 19.6 µM; in assay [4] it was 9.43 µM; in assay [5], 16.9 µM; in assay [7], 13.1 µM; in assay [9] it was 26.4 µM. Further, the TGI in [13] was determined as 13.2 µM; in assay [10], 15.3 µM; in assay [11], 17.3 µM; in assay [12], 13.1 µM.

On to `Cc1ccc(S(=O)(=O)OCC23CCC(CC2)C2CC23)cc1` (stereo not given), for which the TGI in assay [1], in assay [2], in [3], in assay [5], in assay [6] and in assay [7] was over 100 µM each time. Also, the TGI in [8], in [13], in assay [10], in [11] and in [12] was over 100 µM in each case.

Turning to `CCCCCCCCCCCCCP(=O)(O)OCC`, the TGI in assay [1], in assay [2], in assay [4], in assay [5], in assay [6] and in [7] was over 100 µM throughout. Further, the TGI in assay [8], in assay [9], in assay [10], in assay [11] and in assay [12] was over 100 µM each time.

On to `CC(=O)c1ccc(NC(=O)C(=O)Nn2c(=S)[nH]c3ccccc3c2=O)cc1`, for which the TGI in assay [1], in assay [2], in assay [3], in assay [4], in [5] and in [6] was over 100 µM throughout. Moreover, the TGI in assay [7], in [8], in [9], in assay [10], in [11] and in [12] was over 100 µM throughout.

Consider `CCOC(=O)C1=C(C)N(c2ccc(C)cc2)C2=C(C(=O)N(c3ccccc3)C2c2ccccc2)C1c1ccccc1` (stereo not given), for which the TGI in assay [1], in assay [2], in [4], in [5], in assay [6] and in assay [7] was over 25 µM throughout. For the same compound, the TGI in assay [8], in assay [13], in [10], in [11] and in assay [12] was over 25 µM in each case.

`COCCCNC(=O)CC(=O)NCCCOC`: the TGI in assay [1], in assay [2], in assay [4], in assay [5], in assay [6] and in [7] was over 100 µM each time. Moreover, the TGI in [8], in [9], in assay [10], in assay [11] and in [12] was over 100 µM in each case.

Turning to `O=[N+]([O-])c1cccc(C2ON2C2CCCCC2)c1` (stereo not given), the TGI in [1] was 49.3 µM; in assay [2], 48 µM; in assay [3], over 100 µM; in assay [5] it was 90.1 µM; in assay [6], 45.6 µM; in [7], 28 µM. Further, the TGI in assay [8] is 42.9 µM; in assay [9], over 100 µM; in [13], 41.5 µM; in assay [10] it was 29.9 µM; in [11], 39.9 µM; in assay [12] it was 30.7 µM.

Consider `O=C(CC1(O)C(=O)Nc2c(Cl)cc(Cl)cc21)c1cccc2ccccc12` (stereo not given), for which the TGI in assay [1] amounted to 34.1 µM; in assay [2] it was 28.9 µM; in assay [3], 30.2 µM; in assay [4] it was 37.1 µM; in assay [5] it was 37.3 µM; in assay [6], 28.6 µM. Moreover, the TGI in assay [7] amounted to 33.8 µM; in [8], 35.6 µM; in [9], 46.6 µM; in assay [13], 27.5 µM; in [10] it was 33 µM; in assay [12] it was 31 µM.

With `C[C@]1(CO)CCC[C@@]2(C)C1CC[C@H]1CC3C[C@]12CC[C@]3(C)O` (stereo not given in full), the TGI in assay [1], in [2], in assay [3], in assay [4], in [7] and in assay [8] was over 100 µM each time. Also, the TGI in [9], in assay [13], in assay [10] and in assay [12] was over 100 µM each time.

Take `O=C(Cc1nc2ccccc2s1)Nc1cccc(C(F)(F)F)c1`: the TGI in assay [1] was 41.6 µM; in assay [2], 25.4 µM; in assay [3], 44.3 µM; in assay [4] it was 32.3 µM; in [5] it was 22.3 µM; in assay [6], 27.3 µM. For the same compound, the TGI in [7] was found to be 33.9 µM; in [8] it was 36.3 µM; in [13], 42.9 µM; in assay [10], 29.9 µM; in assay [11] it was 25.6 µM; in assay [12], 30.3 µM.

With `Fc1ccccc1C1CC(c2ccc3ccccc3c2)=Nc2ccccc2S1` (stereo not given), the TGI in [1], in assay [2], in [3], in assay [4], in assay [5] and in [6] was over 100 µM in each case. In addition, the TGI in assay [7], in assay [9], in assay [13] and in assay [11] was over 100 µM throughout.
